What was measured:
HCT116-MTAP-KO = test: Cell killing in HCT116 isogenic pair (Cell Titer-Glo viability), MTAP knock-out cells; assay type: cell-based, human; conditions: Homo sapiens, HCT-116, 144 h, 6 days incubation, 0-10 μM, * = more than 50% viability inhibition at tested concentration without a full curve
In short: (§1)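 HCT116 MTAP-knockout or mock-knockout (MTAP wildtype) cells in RPMI 1640 with 10% FBS were seeded overnight, then exposed to test compound at 0–10 μM final for 6 days at 37° C. Viability was measured by CellTiter-Glo luminescence and IC50 was fitted.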

HCT116-mock-RNA-KO = test: Cell killing in HCT116 isogenic pair (Cell Titer-Glo viability), mock knock-out cells with MTAP wildtype genotype; assay type: cell-based, human; conditions: Homo sapiens, HCT-116, 144 h, 6 days incubation, 0-10 μM
In short: as §1

SMILES | IC50 (HCT116-MTAP-KO) [nM] | IC50 (HCT116-mock-RNA-KO) [nM]
Nc1nc2cc(C(=O)N(Cc3ncc(C4CC4)cc3F)C3CCC3)[nH]c2c2c1COC2 [Example 69, 5-amino-N-cyclobutyl-N-((5-cyclopropyl-3-fluoropyridin-2-yl)methyl)-6,8-dihydro-1H-furo[3,4-d]pyrrolo[3,2-b]pyridine-2-carboxamide] | 26 | 2700
CC(C)[C@@H](C)N(Cc1ncc(C2CC2)cc1F)C(=O)c1cc2nc(N)c3c(c2[nH]1)COC3 [Example 70, (R)-5-amino-N-((5-cyclopropyl-3-fluoropyridin-2-yl)methyl)-N-(3-methylbutan-2-yl)-6,8-dihydro-1H-furo[3,4-d]pyrrolo[3,2-b]pyridine-2-carboxamide] | 12 | 1180
C[C@H]1OCc2c1c(N)nc1cc(C(=O)N(C)[C@H]3COCc4cc(Br)ccc43)[nH]c21 [Example 71, (R)-5-amino-N—((R)-7-bromoisochroman-4-yl)-N,6-dimethyl-6,8-dihydro-1H-furo[3,4-d]pyrrolo[3,2-b]pyridine-2-carboxamide] | 728 | 6160
C[C@H]1OCc2c1c(N)nc1cc(C(=O)N(C)[C@@H]3COCc4cc(Br)ccc43)[nH]c21 [Example 72, (R)-5-amino-N—((S)-7-bromoisochroman-4-yl)-N,6-dimethyl-6,8-dihydro-1H-furo[3,4-d]pyrrolo[3,2-b]pyridine-2-carboxamide] | 8.2 | 1010
CCN(C(=O)c1cc2nc(N)c3c(c2[nH]1)COC3)[C@@H]1COCc2cc(Cl)ccc21 [Example 73, (S)-5-amino-N-(7-chloroisochroman-4-yl)-N-ethyl-6,8-dihydro-1H-furo[3,4-d]pyrrolo[3,2-b]pyridine-2-carboxamide] | 34 | 2490
CCN(C(=O)c1cc2nc(N)c3c(c2[nH]1)COC3)[C@H]1COCc2cc(Cl)ccc21 [Example 74, (R)-5-amino-N-(7-chloroisochroman-4-yl)-N-ethyl-6,8-dihydro-1H-furo[3,4-d]pyrrolo[3,2-b]pyridine-2-carboxamide] | 1070 | > 10000
CCN(C(=O)c1cc2nc(N)c3c(c2[nH]1)COC3)[C@@H]1COCc2cc(F)cc(F)c21 [Example 75, (S)-5-amino-N-(5,7-difluoroisochroman-4-yl)-N-ethyl-6,8-dihydro-1H-furo[3,4-d]pyrrolo[3,2-b]pyridine-2-carboxamide] | 41 | > 10000
CCN(C(=O)c1cc2nc(N)c3c(c2[nH]1)COC3)[C@H]1COCc2cc(F)cc(F)c21 [Example 76, (R)-5-amino-N-(5,7-difluoroisochroman-4-yl)-N-ethyl-6,8-dihydro-1H-furo[3,4-d]pyrrolo[3,2-b]pyridine-2-carboxamide] | 2110 | > 10000
CCN(C(=O)c1cc2nc(N)c3c(c2[nH]1)COC3)[C@@H]1COc2cc(C(F)(F)F)ccc21 [Example 77, (S)-5-amino-N-ethyl-N-(6-(trifluoromethyl)-2,3-dihydrobenzofuran-3-yl)-6,8-dihydro-1H-furo[3,4-d]pyrrolo[3,2-b]pyridine-2-carboxamide] | 51 | > 10000
C[C@@H]1OC[C@H](N(C)C(=O)c2cc3nc(N)c4c(c3[nH]2)COC4)c2ccc(Br)cc21 [Example 78, 5-amino-N-((1S,4R)-7-bromo-1-methylisochroman-4-yl)-N-methyl-6,8-dihydro-1H-furo[3,4-d]pyrrolo[3,2-b]pyridine-2-carboxamide] | 624 | 2930
C[C@H]1OC[C@H](N(C)C(=O)c2cc3nc(N)c4c(c3[nH]2)COC4)c2ccc(Br)cc21 [Example 79, 5-amino-N-((1R,4R)-7-bromo-1-methylisochroman-4-yl)-N-methyl-6,8-dihydro-1H-furo[3,4-d]pyrrolo[3,2-b]pyridine-2-carboxamide] | 525 | 3280
C[C@@H]1OC[C@@H](N(C)C(=O)c2cc3nc(N)c4c(c3[nH]2)COC4)c2ccc(Br)cc21 [Example 80, 5-amino-N-((1S,4S)-7-bromo-1-methylisochroman-4-yl)-N-methyl-6,8-dihydro-1H-furo[3,4-d]pyrrolo[3,2-b]pyridine-2-carboxamide] | 351 | > 10000
C[C@H]1OC[C@@H](N(C)C(=O)c2cc3nc(N)c4c(c3[nH]2)COC4)c2ccc(Br)cc21 [Example 81, 5-amino-N-((1R,4S)-7-bromo-1-methylisochroman-4-yl)-N-methyl-6,8-dihydro-1H-furo[3,4-d]pyrrolo[3,2-b]pyridine-2-carboxamide] | 9.7 | 1020
CN(C(=O)c1cc2nc(N)c3c(c2[nH]1)COC3)[C@@H]1COCc2cc(C(F)(F)F)cc(F)c21 [Example 82, (S)-5-amino-N-(5-fluoro-7-(trifluoromethyl)isochroman-4-yl)-N-methyl-6,8-dihydro-1H-furo[3,4-d]pyrrolo[3,2-b]pyridine-2-carboxamide] | 13 | 1840
C[C@H]1OC[C@@H](N(C)C(=O)c2cc3nc(N)c4c(c3[nH]2)CO[C@@H]4C)c2ccc(C(F)(F)F)cc21 [Example 83, (R)-5-amino-N,6-dimethyl-N-((1R,4S)-1-methyl-7-(trifluoromethyl)isochroman-4-yl)-6,8-dihydro-1H-furo[3,4-d]pyrrolo[3,2-b]pyridine-2-carboxamide] | 7.2 | 556
CN(C(=O)c1cc2nc(N)c3c(c2[nH]1)COC3)[C@@H]1COCc2cc(I)ccc21 [Example 84, (S)-5-amino-N-(7-iodoisochroman-4-yl)-N-methyl-6,8-dihydro-1H-furo[3,4-d]pyrrolo[3,2-b]pyridine-2-carboxamide] | 10 | 2200
CN(C(=O)c1cc2nc(N)c3c(c2[nH]1)COC3)[C@@H]1COCc2nc(C(F)(F)F)ccc21 [Example 85, (S)-5-amino-N-methyl-N-(2-(trifluoromethyl)-5,8-dihydro-6H-pyrano[3,4-b]pyridin-5-yl)-6,8-dihydro-1H-furo[3,4-d]pyrrolo[3,2-b]pyridine-2-carboxamide] | 113 | > 10000
CN(C(=O)c1cc2nc(N)c3c(c2[nH]1)COC3)[C@H]1COCc2nc(C(F)(F)F)ccc21 [Example 86, (R)-5-amino-N-methyl-N-(2-(trifluoromethyl)-5,8-dihydro-6H-pyrano[3,4-b]pyridin-5-yl)-6,8-dihydro-1H-furo[3,4-d]pyrrolo[3,2-b]pyridine-2-carboxamide] | 1900 | > 10000
CN(C(=O)c1cc2nc(N)c3c(c2[nH]1)COC3)[C@@H]1COCc2nc(C3CC3)ccc21 [Example 87, (S)-5-amino-N-(2-cyclopropyl-5,8-dihydro-6H-pyrano[3,4-b]pyridin-5-yl)-N-methyl-6,8-dihydro-1H-furo[3,4-d]pyrrolo[3,2-b]pyridine-2-carboxamide] | 67 | > 10000
CN(C(=O)c1cc2nc(N)c3c(c2[nH]1)COC3)[C@H]1COCc2nc(C3CC3)ccc21 [Example 88, (R)-5-amino-N-(2-cyclopropyl-5,8-dihydro-6H-pyrano[3,4-b]pyridin-5-yl)-N-methyl-6,8-dihydro-1H-furo[3,4-d]pyrrolo[3,2-b]pyridine-2-carboxamide] | 1410 | > 10000
CCN(C(=O)c1cc2nc(N)c3c(c2[nH]1)COC3)[C@@H]1CO[C@H](C)c2cc(C(F)(F)F)ccc21 [Example 89, 5-amino-N-ethyl-N-((1R,4S)-1-methyl-7-(trifluoromethyl)isochroman-4-yl)-6,8-dihydro-1H-furo[3,4-d]pyrrolo[3,2-b]pyridine-2-carboxamide] | 4.1 | 446
CC(=O)N1CC[C@@H](N(C)C(=O)c2cc3nc(N)c4c(c3[nH]2)COC4)c2ccc(C(F)(F)F)cc21 [Example 90, (R)—N-(1-acetyl-7-(trifluoromethyl)-1,2,3,4-tetrahydroquinolin-4-yl)-5-amino-N-methyl-6,8-dihydro-1H-furo[3,4-d]pyrrolo[3,2-b]pyridine-2-carboxamide] | 29 | 5450
CN(C(=O)c1cc2nc(N)c3c(c2[nH]1)COC3)[C@@H]1COC2(CC2)c2cc(C(F)(F)F)ccc21 [Example 91, (S)-5-amino-N-methyl-N-(7′-(trifluoromethyl)spiro[cyclopropane-1,1′-isochroman]-4′-yl)-6,8-dihydro-1H-furo[3,4-d]pyrrolo[3,2-b]pyridine-2-carboxamide] | 32 | 3880
CN(C(=O)c1[nH]c2c3c(c(N)nc2c1C#N)COC3)[C@@H]1COCc2cc(C(F)(F)F)ccc21 [Example 92, (S)-5-amino-3-cyano-N-methyl-N-(7-(trifluoromethyl)isochroman-4-yl)-6,8-dihydro-1H-furo[3,4-d]pyrrolo[3,2-b]pyridine-2-carboxamide] | 49 | 2050
CC[C@@H]1OC[C@@H](N(C)C(=O)c2cc3nc(N)c4c(c3[nH]2)COC4)c2ccc(C(F)(F)F)cc21 [Example 93, 5-amino-N-((1S,4S)-1-ethyl-7-(trifluoromethyl)isochroman-4-yl)-N-methyl-6,8-dihydro-1H-furo[3,4-d]pyrrolo[3,2-b]pyridine-2-carboxamide] | 165 | > 10000
CC[C@H]1OC[C@@H](N(C)C(=O)c2cc3nc(N)c4c(c3[nH]2)COC4)c2ccc(C(F)(F)F)cc21 [Example 94, 5-amino-N-((1R,4S)-1-ethyl-7-(trifluoromethyl)isochroman-4-yl)-N-methyl-6,8-dihydro-1H-furo[3,4-d]pyrrolo[3,2-b]pyridine-2-carboxamide] | 3.8 | 578
CN(C(=O)c1cc2nc(N)c3c(c2[nH]1)COC3)[C@@H]1COCc2cc(C3CC3)cc(F)c21 [Example 95, (S)-5-amino-N-(7-cyclopropyl-5-fluoroisochroman-4-yl)-N-methyl-6,8-dihydro-1H-furo[3,4-d]pyrrolo[3,2-b]pyridine-2-carboxamide] | 18 | 1780
